Measurements as given in ChEMBL document CHEMBL1201862, “PubChem BioAssay data set” (2004).
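Growth conditions: 96-well plates. Treatment: test compound, 48 hours, 5 concentrations. Analysis: linear interpolation between bracketing concentrations; unreached endpoints set to highest concentration. GI50 marks 50% less growth.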 Calls of active or inactive are those of the source. Cut-off read from the data, not from the text of the source: active = GI50 up to about 1.1 µM and inactive = higher.

Tests used:
Experiment in all cases: inhibition of tumour cell growth, NCI panel, 48 h
[1] = system: A549
[2] = system: UACC-62
[3] = system: SK-OV-3
[4] = system: SF-268
[5] = system: RXF 393
[6] = system: UO-31
[7] = system: IGROV-1
[8] = system: TK-10
[9] = system: M14
[10] = system: OVCAR-4
[11] = system: HOP-92
[12] = system: NCI-H460
[13] = system: SNB-19
[14] = system: HT-29
[15] = system: NCI-H522
[16] = system: SK-MEL-5
[17] = system: SK-MEL-28

Measured: GI50

COC(=O)C(C(=O)C(=O)Nc1ccccc1OC)c1csc(-n2nc(-c3ccccc3)cc2-c2ccccc2)n1 (stereo not given)
inactive: [1] > 100 µM | [2] > 100 µM | [3] > 100 µM | [4] > 100 µM | [5] 89.5 µM | [6] 54.7 µM | [7] > 100 µM | [8] > 100 µM | [9] > 100 µM | [10] > 100 µM | [11] > 100 µM | [12] > 100 µM | [13] > 100 µM | [14] 59.3 µM | [15] > 100 µM

COC(=O)N/N=C(\C)C(CN1CCCCC1)C(C1=C(O)c2ccccc2OC1)c1ccccc1 (stereo not given)
inactive: [1] > 100 µM | [2] 86.3 µM | [3] > 100 µM | [16] > 100 µM | [4] > 100 µM | [5] 17.9 µM | [6] 72.4 µM | [7] > 100 µM | [8] > 100 µM | [9] > 100 µM | [17] > 100 µM | [10] > 100 µM | [12] > 100 µM | [13] > 100 µM | [14] > 100 µM | [15] > 100 µM

Cc1cc(N(CCC#N)S(=O)(=O)c2ccccc2)ccc1/C=C1\N=C(c2ccc(Cl)cc2)OC1=O
inactive: [1] > 100 µM | [2] > 100 µM | [16] > 100 µM | [4] > 100 µM | [5] > 100 µM | [6] > 100 µM | [7] > 100 µM | [9] > 100 µM | [17] > 100 µM | [10] > 100 µM | [11] > 100 µM | [12] > 100 µM | [13] > 100 µM | [14] > 100 µM

O=C1[C@@H]2C(c3ccncc3)=NO[C@@H]2C(=O)N1c1ccc(Cc2ccc(N3C(=O)[C@H]4C(c5ccncc5)=NO[C@H]4C3=O)cc2)cc1
inactive: [1] > 100 µM | [2] > 100 µM | [3] > 100 µM | [16] > 100 µM | [4] > 100 µM | [5] > 100 µM | [6] > 100 µM | [7] > 100 µM | [8] > 100 µM | [9] > 100 µM | [17] > 100 µM | [10] > 100 µM | [11] > 100 µM | [12] > 100 µM | [14] > 100 µM

O=C(CC1=Nc2nnc(CCCCCCCc3nnc4n3C(=O)C(CC(=O)c3ccccc3)=N4)n2C1=O)c1ccccc1
inactive: [1] > 100 µM | [2] > 100 µM | [3] > 100 µM | [16] > 100 µM | [4] > 100 µM | [5] > 100 µM | [6] > 100 µM | [7] > 100 µM | [8] > 100 µM | [9] > 100 µM | [17] > 100 µM | [11] > 100 µM | [12] > 100 µM | [13] > 100 µM | [14] > 100 µM | [15] > 100 µM

OC1=CN=C(c2ccccc2)Oc2ccccc21
inactive: [1] > 100 µM | [2] > 100 µM | [3] > 100 µM | [16] > 100 µM | [4] 41.4 µM | [5] > 100 µM | [6] > 100 µM | [7] > 100 µM | [8] > 100 µM | [9] > 100 µM | [17] > 100 µM | [10] 47.6 µM | [11] > 100 µM | [12] > 100 µM | [13] 42.5 µM | [14] > 100 µM

Sc1nnc(-c2ccnc(-c3nnc(S)[nH]3)c2)[nH]1
inactive: [1] > 100 µM | [2] > 100 µM | [3] > 100 µM | [16] > 100 µM | [4] > 100 µM | [5] > 100 µM | [6] > 100 µM | [7] > 100 µM | [8] > 100 µM | [9] > 100 µM | [17] > 100 µM | [10] > 100 µM | [12] > 100 µM | [13] > 100 µM | [14] > 100 µM | [15] > 100 µM

O=C(O)Cn1c(=O)[nH]c(=O)c2[nH]cnc21
inactive: [1] > 100 µM | [2] > 100 µM | [3] > 100 µM | [16] > 100 µM | [4] > 100 µM | [5] > 100 µM | [6] > 100 µM | [7] > 100 µM | [8] > 100 µM | [9] > 100 µM | [17] > 100 µM | [10] > 100 µM | [12] > 100 µM | [13] > 100 µM | [14] > 100 µM | [15] > 100 µM

CCOC(=O)C=C1CCN(C(=O)c2ccccc2)CC1
inactive: [1] > 100 µM | [2] > 100 µM | [3] > 100 µM | [16] > 100 µM | [4] > 100 µM | [5] > 100 µM | [6] > 100 µM | [7] > 100 µM | [8] > 100 µM | [9] > 100 µM | [17] > 100 µM | [10] > 100 µM | [11] > 100 µM | [12] > 100 µM | [13] > 100 µM | [14] > 100 µM
